{"source": "patent US10918640B2", "about": "“Azetidine derivatives” (Vernalis (R&D) Ltd., priority 2008, dated 2021)", "test_system": "carrageenan-induced thermal hypersensitivity", "test": "Rat carrageenan induced thermal hyperalgesia model of inflammatory pain", "format": "in vivo", "description": "Rat Carrageenan Induced Thermal Hyperalgesia Model of Inflammatory Pain.\nMale Wistar rats were assessed for thermal pain sensitivity by applying a focused light beam onto the hind paws and recording the time to paw withdrawal, before and after local intraplantar administration of carrageenan. After 3 h. thermal pain sensitivity was reassessed in treated and untreated hind paws prior to dosing with test compound or vehicle. Indomethacin was administered as a positive control.\nMale Sprague Dawley rats were tail-marked, and acclimatized to the plantar boxes on 3 separate occasions (6, 5 and 1 day prior to the test day) for at least 5 min on each occasion. […] The latency to withdraw both left and right hindpaws from the heat source was determined on 2 occasions (3 min apart). The mean across the 2 challenges was recorded as the baseline for each animal. Rats 18 and 30 were not used in the study as they had very high baseline readings, and they were replaced by 61 and 63. […]\nFor example, the compound of Example 13 above was tested as follows: Rats were dosed with intraplantar carrageenan at t=0; the compound of Example 13 (1, 3 & 10 mg/kg po) or vehicle (5% EtOH: 95% (1% methylcellulose in water) at t=2 h; indomethacin (10 mg/kg ip) or vehicle at t=2.5 h and thermal sensitivity was measured at t=3 h. Thus all rats received both oral and ip dosing.", "data": [{"molecule": "O=C(Nc1cccnn1)N1CC(Oc2ccc(-c3ccccc3)cn2)C1", "note": "[Example 13, 3-(5-Phenyl-pyridin-2-yloxy)-azetidine-1-carboxylic acid pyridazin-3-ylamide]", "values": [{"measurement": "pain sensitivity relative to normal levels", "setting": "1, 3, 10 mg/kg p.o., rat", "value": "did not reduce pain sensitivity to below normal levels"}, {"measurement": "statistical significance of inhibition cf. vehicle/carrageenan group", "setting": "at 3 and 10 mg/kg doses p.o., one way ANOVA followed by Newman-Keuls post hoc tests", "value": "reached statistical significance"}]}]}
